Measurements: patent US9976142B2, “Targeting molecule and a use thereof” (Nitto Denko Corporation, priority 2014, dated 2018)
Square brackets hold non-standard residues; d marks the D form. Ends that are not written are not given here.

Tested on: rat hepatic stellate cells (HSCs)
Assay: siRNA introduction into rat hepatic stellate cells with targeting molecule/LipoTrust/siRNA lipoplex; HSP47 expression by quantitative PCR
Format: cell-based
Settings: siRNA 11.5 μg/ml; for HSP47 expression rate (%): FIG. 2, HSP47 relative to GAPDH, untreated cell = 100; for expression rate of HSP47 gene: FIG. 5; for expression rate of HSP47 gene / extent of the suppression of the expression of HSP47 gene, compared with RBP Loop 1: peptide 7.7 μM; for suppression of HSP47 expression: peptide stock solutions 1.1-10 mM; for extent of the suppression of the expression of HSP47 gene, compared with RBP Loop 1: FIG. 3
Procedure: LipoTrust™ SR was dissolved in nuclease-free water (Ambion, Cat. No. AM9937) at a concentration of 1 mM of the cationic lipid. 10 μl of this liposome solution was placed in an Eppendorf tube, to which added 1 μl of the stock solution of each peptide above dissolved in DMSO at predetermined concentration (1.1 mM, 1.25 mM, 2.5 mM, 3.4 mM, 5 mM or 10 mM for experiments whose results are shown in FIG. 1; 90 mM for experiments whose results are shown in FIG. 2) or the stock solution of vitamin A above, and the mixture was vortexed for 15 seconds. To this mixture, 1.5 μl of the above siRNA stock solution was added and mixed, then 17.5 μl of 5% glucose aq. solution (OTSUKA GLUCOSE INJECTION 5%, Otsuka Pharmaceutical Co., Ltd.) was added and mixed. Thus obtained solution of liposome-peptide (or vitamin A)-siRNA complex (lipoplex) was left still under shade for 15 min at room temperature. Also, a mixture of the peptide and siRNA without LipoTrust™ SR was prepared as a control.
Two days before the siRNA introduction, hepatic stellate cells (HSCs) prepared from a rat liver according to the method of Schaefer et al. (Schaefer et al., Hepatology. 1987 July-August; 7(4):680-7) were inoculated uniformly onto a 6-well plate at a density of 0.2×10^5/well and cultured in a Dulbecco's modified Eagle's medium (D-MEM, Sigma Aldrich, Cat. No. D6546, hereinbelow referred to as “culture medium”) containing 10% fetal bovine serum (Thermo HyClone, Cat. No. SH30070.03), 2% L-glutamine (Sigma Aldrich, Cat. No. G7513) and 1% penicillin-streptomycin (Sigma Aldrich, Cat. No. G1146).
The culture medium was removed, 900 μl of fresh culture medium was added to each well, and then this was incubated for at least 30 minutes at 37° C. To 30 μl of each lipoplex solution obtained in Example 1, 100 μl of 5% glucose solution was added to make a mixed solution of 130 μl, and 100 μl of said mixture was added to corresponding well. The final concentration of the siRNA at this time was 11.5 μg/ml. After incubating at 37° C., in 5% CO2 for 30 minutes, the medium comprising the lipoplex solution was removed and substituted with the culture medium, and this was cultured under normal condition for 24-36 hours.
Total RNA extraction of each sample was carried out using RNeasy Mini kit (Qiagen). Firstly, the culture medium was removed, and 350 μl/well each of RLT/2ME solution which was prepared in advance by mixing RLT solution attached to RNeasy Mini kit with 1% (v/v) 2-mercaptoethanol (2ME, Wako) was dispensed into each well. Total volume of the cell lysate was homogenized with QIAshredder (Qiagen), centrifuged at 4° C. and 12000 rpm for 2 min, and then total RNA was extracted according to the manufacturer's instruction. The obtained RNA was quantified using NanoDrop 2000 (Thermo Fisher Scientific), and cDNA was synthesized by RT-PCR. 20 μl total volume/tube of the reaction solution consisting of 4 μl of the reverse transcriptase mix (Super Script VILO Master Mix, Invitrogen, 11755-250) and 16 μl of total RNA of each sample (containing 100-500 ng or more RNA) was reacted at 25° C. for 5 min, at 42° C. for 60 min, then at 85° C. for 5 min, respectively, and subsequently stored at 4° C.
The suppression of HSP47 expression was analyzed by quantitative PCR. As a standard template, the untreated cell sample was used in 10-fold dilution series (the stock solution, 10- and 100-fold dilutions). To each well of MicroAmp (Optical 96-well Reaction Plate, Applied Biosystems, Cat. No. 4306737) added a 48 μl premix consisting of 22 μl of sterile water, 25 μl of Power SYBR® Green (Applied Biosystems, Cat. No. 4367669) and 1 μl of primer mix. The primer mix comprises 50 μM each of the primer set against HSP47 or GAPDH, an internal standard gene, as shown below:
To the corresponding well, 2 μl of the template cDNA obtained from each sample was added to make a total volume of 50 μl. […]

[1] = each peptide at final concentration 69.2 μM, smaller value = greater suppression

Compound: AKKDPEGLFLQD (Peptide No. 10-2)
- HSP47 expression rate (%) [1]: 48.5%

Compound: AKFQKLEPGDDLNI (Scramble peptide) [scrambled peptide, negative control, reference compound]
- expression rate of HSP47 gene: almost the same as the result in the group using no targeting molecule

Compound: KDPEGLFLQD (Peptide No. 10)
- HSP47 expression rate (%) [1]: 57.2%

Compound: AKGRVRLLNNWDVCA (Synthetic RBP loop 2)
- suppression of HSP47 expression (FIG. 1): concentration-dependent suppression of HSP47 expression

Compound: AKEDPKGLFLQDNI (Variant peptide E3K6) [Mutant peptide 1]
- extent of the suppression of the expression of HSP47 gene, compared with RBP Loop 1: lower

Compound: KDPEGLFLQDNI (Peptide No. 10-4)
- HSP47 expression rate (%) [1]: 42.9%

Compound: KDPEGLFLQDN (Peptide No. 10-6)
- HSP47 expression rate (%) [1]: 44.3%

Compound: KKDPEGLFLQD (Peptide No. 10-5)
- HSP47 expression rate (%) [1]: 40.4%

Compound: AKKDPEGLFLQDN (Peptide No. 10-1)
- HSP47 expression rate (%) [1]: 39.3%

Compound: d-INDQLFLGEPDKKA-amide ([dI][dN][dD][dQ][dL][dF][dL]G[dE][dP][dD][dK][dK][dA]-NH2; N-terminus assumed; SMILES CC[C@@H](C)[C@@H](N)C(=O)N[C@H](CC(N)=O)C(=O)N[C@H](CC(=O)O)C(=O)N[C@H](CCC(N)=O)C(=O)N[C@H](CC(C)C)C(=O)N[C@H](Cc1ccccc1)C(=O)N[C@H](CC(C)C)C(=O)NCC(=O)N[C@H](CCC(=O)O)C(=O)N1CCC[C@@H]1C(=O)N[C@H](CC(=O)O)C(=O)N[C@H](CCCCN)C(=O)N[C@H](CCCCN)C(=O)N[C@H](C)C(N)=O) [retro-inverso peptide]
- targetability (suppression of HSP47) (FIG. 4, peptide 23.1 μM): almost the same targetability as that of RBP Loop 1

Compound: AKDDPEGLFLQKNI (Variant peptide D3K12) [Mutant peptide 3]
- extent of the suppression of the expression of HSP47 gene, compared with RBP Loop 1: lower

Compound: CC1=C(/C=C/C(C)=C/C=C/C(C)=C/CO)C(C)(C)CCC1 [VA, all-trans-retinol, reference compound]
- HSP47 expression rate (%) (VA at final concentration 7.7 μM): 46.8%

Compound: AKDKPEGLFLQDNI (Variant peptide D3K4) [Mutant peptide 2]
- extent of the suppression of the expression of HSP47 gene, compared with RBP Loop 1: lower

Compound: AKKDPEGLFLQDNI (Synthetic RBP loop 1)
- suppression of HSP47 expression (FIG. 1): concentration-dependent suppression of HSP47 expression
- suppression rate by the complex, compared with vitamin A (FIG. 1): comparable to that by vitamin A
- HSP47 expression rate (%) [1]: 49.0%
- expression rate of HSP47 gene: significantly decreased

Compound: KKDPEGLFLQDNI (Peptide No. 10-3)
- HSP47 expression rate (%) [1]: 31.2%
